Experiments:
Format in all cases: functional, cell-based
A549 = assay: Cytotoxicity against human A549 cells after 48 hrs by MTT method; details: A549, 48 h
SW480 = assay: Cytotoxicity against human SW480 cells after 48 hrs by MTT method; details: SW480, 48 h
MCF7 = assay: Cytotoxicity against human MCF7 cells after 48 hrs by MTT method; details: MCF7, 48 h
HL-60 = assay: Cytotoxicity against human HL60 cells after 48 hrs by MTT method; details: HL-60, 48 h
SMMC-7721 = assay: Cytotoxicity against human SMMC7721 cells after 48 hrs by MTT method; details: SMMC-7721, 48 h

C=C1[C@@H](O)[C@]23[C@H](O)[C@H]1CC[C@H]2[C@@]12C(=O)O[C@]3(O)[C@@H](O)[C@@H]1C(C)(C)CC[C@@H]2OC(C)=O
IC50 (A549): > 10 µM | IC50 (SW480): > 10 µM | IC50 (MCF7): > 10 µM | IC50 (HL-60): > 10 µM | IC50 (SMMC-7721): > 10 µM

C=C1C(=O)[C@]23C[C@H]1CC[C@H]2[C@@]12CO[C@@]3(O)[C@@H](O)[C@@H]1C(C)(C)CC[C@@H]2OC(C)=O [EFFUSANIN B]
IC50 (A549): 3.5 µM | IC50 (SW480): 0.8 µM | IC50 (MCF7): 0.7 µM | IC50 (HL-60): 0.7 µM | IC50 (SMMC-7721): 1 µM

C=C1[C@@H](O)[C@@]23[C@H]4O[C@H]5O[C@]2(O)[C@@H](OC(C)=O)[C@@H]2C(C)(C)CCC[C@@]52[C@@H]3[C@@H](O)C[C@@H]14 [ISOADENOLIN A]
IC50 (A549): > 10 µM | IC50 (SW480): > 10 µM | IC50 (MCF7): > 10 µM | IC50 (HL-60): > 10 µM | IC50 (SMMC-7721): > 10 µM

C=C1C(=O)[C@@]23[C@H]4O[C@H]5O[C@]2(O)[C@@H](O)[C@@H]2C(C)(C)CC[C@H](OC(C)=O)[C@]52[C@@H]3CC[C@@H]14 [ISOADENOLIN B]
IC50 (A549): > 10 µM | IC50 (SW480): > 10 µM | IC50 (MCF7): > 10 µM | IC50 (HL-60): > 10 µM | IC50 (SMMC-7721): > 10 µM

COC[C@H]1C(=O)[C@@]23[C@H]4O[C@H]5O[C@]2(O)[C@@H](O)[C@@H]2C(C)(C)CC[C@H](O)[C@]52[C@@H]3CC[C@@H]14 [ISOADENOLIN C]
IC50 (A549): > 10 µM | IC50 (SW480): > 10 µM | IC50 (MCF7): > 10 µM | IC50 (HL-60): > 10 µM | IC50 (SMMC-7721): > 10 µM

COC[C@@H]1C(=O)[C@]23[C@H](O)[C@H]1C[C@H](O)[C@H]2[C@@]12CCCC(C)(C)[C@H]1[C@H](O)[C@@]3(O)O[C@@H]2OC [ISOADENOLIN D]
IC50 (A549): > 10 µM | IC50 (SW480): > 10 µM | IC50 (MCF7): > 10 µM | IC50 (HL-60): > 10 µM | IC50 (SMMC-7721): > 10 µM

C=C1[C@@H](O)[C@]23[C@H](O)[C@H]1C[C@H](O)[C@H]2[C@@]12CCCC(C)(C)[C@H]1[C@H](O)[C@@]3(O)O[C@@H]2OC [ISOADENOLIN E]
IC50 (A549): > 10 µM | IC50 (SW480): > 10 µM | IC50 (MCF7): > 10 µM | IC50 (HL-60): > 10 µM | IC50 (SMMC-7721): > 10 µM

C=C1[C@@H](O)[C@]23[C@H](O)[C@H]1C[C@H](O)[C@H]2[C@@]12CCCC(C)(C)[C@H]1[C@H](OC(C)=O)[C@@]3(O)O[C@@H]2OC [ISOADENOLIN F]
IC50 (A549): > 10 µM | IC50 (SW480): > 10 µM | IC50 (MCF7): > 10 µM | IC50 (HL-60): > 10 µM | IC50 (SMMC-7721): > 10 µM

C=C1[C@@H](O)[C@]23[C@H](O)[C@H]1C[C@H](OC(C)=O)[C@H]2[C@@]12CCCC(C)(C)[C@H]1[C@H](O)[C@@]3(O)O[C@@H]2OC [ISOADENOLIN G]
IC50 (A549): > 10 µM | IC50 (SW480): > 10 µM | IC50 (MCF7): > 10 µM | IC50 (HL-60): > 10 µM | IC50 (SMMC-7721): > 10 µM

C=C1C(=O)[C@]23[C@H](O)[C@H]1CC[C@H]2[C@@]12[C@H](OC)O[C@]3(O)[C@@H](O)[C@@H]1C(C)(C)CC[C@@H]2OC(C)=O [ISOADENOLIN H]
IC50 (A549): > 10 µM | IC50 (SW480): > 10 µM | IC50 (MCF7): > 10 µM | IC50 (HL-60): > 10 µM | IC50 (SMMC-7721): > 10 µM

C=C1C(=O)[C@]23C[C@H]1CC=C2[C@@]12CO[C@]3(O)[C@@H](O)[C@@H]1C(C)(C)CC[C@@H]2OC(C)=O [ISOADENOLIN I]
IC50 (A549): 5 µM | IC50 (SW480): 3.1 µM | IC50 (MCF7): 2.6 µM | IC50 (HL-60): 2.6 µM | IC50 (SMMC-7721): 3 µM

C=C1C(=O)[C@@]23C(=CC[C@@H]1[C@H]2O)[C@@]12CO[C@]3(O)[C@@H](O)[C@@H]1C(C)(C)CC[C@@H]2OC(C)=O [ISOADENOLIN J]
IC50 (A549): > 10 µM | IC50 (SW480): > 10 µM | IC50 (MCF7): > 10 µM | IC50 (HL-60): > 10 µM | IC50 (SMMC-7721): > 10 µM

C=C1[C@H]2C[C@]3(C(=C[C@@H]2O)[C@@]24CO[C@]3(O)[C@@H](O)[C@@H]2C(C)(C)CC[C@@H]4OC(C)=O)[C@@H]1O [ISOADENOLIN K]
IC50 (A549): 14.1 µM | IC50 (SW480): 3.1 µM | IC50 (MCF7): 3 µM | IC50 (HL-60): 3.5 µM | IC50 (SMMC-7721): 5.7 µM

COC[C@H]1C(=O)[C@]23[C@H](O)[C@H]1CC[C@H]2[C@@]12CO[C@]3(O)[C@@H](O)[C@@H]1C(C)(C)CC[C@@H]2OC(C)=O [LASIOKAURININ]
IC50 (A549): 20.4 µM | IC50 (SW480): 4.9 µM | IC50 (MCF7): 6 µM | IC50 (HL-60): 6.8 µM | IC50 (SMMC-7721): 4.8 µM

C=C1C(=O)[C@]23[C@H](O)[C@H]1CC[C@H]2[C@@]12CO[C@@]3(O)[C@@H](O)[C@@H]1C(C)(C)CC[C@@H]2OC(C)=O [LASIOKAURIN]
IC50 (A549): 7.6 µM | IC50 (SW480): 2.3 µM | IC50 (MCF7): 5.3 µM | IC50 (HL-60): 3.2 µM | IC50 (SMMC-7721): 2 µM

C=C1C(=O)[C@]23C[C@H]1C[C@@H](OC(C)=O)[C@H]2[C@]12CCCC(C)(C)[C@H]1[C@H](O)[C@@]3(O)OC2 [LONGIKAURIN E]
IC50 (A549): 3.9 µM | IC50 (SW480): 2.4 µM | IC50 (MCF7): 1.9 µM | IC50 (HL-60): 1.8 µM | IC50 (SMMC-7721): 1.9 µM

C=C1C(=O)[C@@]23[C@@H]4O[C@H]5O[C@@]2(O)[C@@H](O)[C@@H]2C(C)(C)CCC[C@]52[C@@H]3[C@@H](O)C[C@@H]14 [MACROCALIN B]
IC50 (A549): 31.9 µM | IC50 (SW480): 10.9 µM | IC50 (MCF7): 26.9 µM | IC50 (HL-60): 12.4 µM | IC50 (SMMC-7721): 9.1 µM

CC(=O)O[C@H]1C(=O)[C@@]2(C)[C@H]([C@H](OC(=O)c3ccccc3)[C@]3(O)C[C@H](OC(=O)[C@H](O)[C@@H](NC(=O)c4ccccc4)c4ccccc4)C(C)=C1C3(C)C)[C@]1(OC(C)=O)CO[C@@H]1C[C@@H]2O [PACLITAXEL]
IC50 (A549): < 0.008 µM | IC50 (SW480): < 0.008 µM | IC50 (MCF7): < 0.008 µM | IC50 (HL-60): 0.01 µM | IC50 (SMMC-7721): < 0.008 µM

C=C1C(=O)[C@@]23[C@@H]4OC5O[C@@]2(O)[C@@H](O)[C@@H]2C(C)(C)CC[C@@H](O)[C@]52[C@@H]3CC[C@@H]14 [PONICIDIN]
IC50 (A549): 16.5 µM | IC50 (SW480): 2.8 µM | IC50 (MCF7): 16.3 µM | IC50 (HL-60): 7.4 µM | IC50 (SMMC-7721): 5 µM

C=C1C(=O)[C@@]23[C@@H]4O[C@H]5O[C@@]2(O)[C@@H](O)[C@@H]2C(C)(C)CCC[C@]52[C@@H]3CC[C@@H]14 [XEROPHILUSIN B]
IC50 (A549): 2 µM | IC50 (SW480): 0.9 µM | IC50 (MCF7): 1.1 µM | IC50 (HL-60): 0.8 µM | IC50 (SMMC-7721): 1.3 µM

C=C1C(=O)[C@]23[C@H](O)[C@H]1CC[C@H]2[C@@]12[C@H](O)O[C@]3(O)[C@@H](O)[C@@H]1C(C)(C)CC[C@@H]2OC(C)=O [XEROPHILUSIN J]
IC50 (A549): 21.7 µM | IC50 (SW480): 2.7 µM | IC50 (MCF7): 9.7 µM | IC50 (HL-60): 7.6 µM | IC50 (SMMC-7721): 4.6 µM

C=C1C(=O)[C@]23[C@H](O)[C@H]1CC[C@H]2[C@]12CCCC(C)(C)[C@H]1[C@H](O)[C@]3(O)OC2=O [XEROPHILUSIN N]
IC50 (A549): 9.7 µM | IC50 (SW480): 3.5 µM | IC50 (MCF7): 7.9 µM | IC50 (HL-60): 3.8 µM | IC50 (SMMC-7721): 3.6 µM

— ChEMBL document CHEMBL1799954, “Structure and cytotoxicity of diterpenoids from Isodon adenolomus” (J Nat Prod, 2011)
